From PubChem BioAssay (NCI)
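These data come from cells grown in 96-well plates and exposed to compound for 48 hours at five concentrations. The concentration for 50% growth inhibition is given as GI50. At the TGI there is no net growth.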

Key:
Assay in all cases: DTP human tumour cell line panel, 48 h
CAKI-1 renal = test system: CAKI-1 renal
MDA-MB-435 = test system: MDA-MB-435
HCC-2998 colon = test system: HCC-2998 colon
SF-539 CNS = test system: SF-539 CNS
A549 NSCLC = test system: A549 NSCLC
HS 578T breast = test system: HS 578T breast
SK-MEL-5 melanoma = test system: SK-MEL-5 melanoma
SF-295 CNS = test system: SF-295 CNS
SK-MEL-28 melanoma = test system: SK-MEL-28 melanoma
MALME-3M melanoma = test system: MALME-3M melanoma
EKVX NSCLC = test system: EKVX NSCLC
786-0 renal = test system: 786-0 renal
HT29 colon = test system: HT29 colon
NCI-H460 lung = test system: NCI-H460 lung
CCRF-CEM leukemia = test system: CCRF-CEM leukemia
SW-620 colon = test system: SW-620 colon
MCF7 breast = test system: MCF7 breast
DU-145 prostate = test system: DU-145 prostate
UO-31 renal = test system: UO-31 renal
NCI/ADR-RES ovarian = test system: NCI/ADR-RES ovarian
K-562 leukemia = test system: K-562 leukemia
OVCAR-3 ovarian = test system: OVCAR-3 ovarian
HCT-15 colon = test system: HCT-15 colon
UACC-62 melanoma = test system: UACC-62 melanoma
TK-10 renal = test system: TK-10 renal
MDA-MB-231 breast = test system: MDA-MB-231 breast
A498 renal = test system: A498 renal
HL-60(TB) leukemia = test system: HL-60(TB) leukemia
U251 CNS = test system: U251 CNS
SNB-19 CNS = test system: SNB-19 CNS
RXF 393 renal = test system: RXF 393 renal
LOX IMVI melanoma = test system: LOX IMVI melanoma
SNB-75 CNS = test system: SNB-75 CNS
M14 melanoma = test system: M14 melanoma
SN12C renal = test system: SN12C renal
SF-268 CNS = test system: SF-268 CNS
SK-OV-3 ovarian = test system: SK-OV-3 ovarian
KM12 colon = test system: KM12 colon
IGROV1 ovarian = test system: IGROV1 ovarian
NCI-H522 lung = test system: NCI-H522 lung
MOLT-4 leukemia = test system: MOLT-4 leukemia
COLO 205 colon = test system: COLO 205 colon
T-47D breast = test system: T-47D breast
OVCAR-5 ovarian = test system: OVCAR-5 ovarian
NCI-H226 lung = test system: NCI-H226 lung
HOP-92 NSCLC = test system: HOP-92 NSCLC
SK-MEL-2 melanoma = test system: SK-MEL-2 melanoma
OVCAR-8 ovarian = test system: OVCAR-8 ovarian
ACHN renal = test system: ACHN renal
UACC-257 melanoma = test system: UACC-257 melanoma
NCI-H23 lung = test system: NCI-H23 lung
BT-549 breast = test system: BT-549 breast
OVCAR-4 ovarian = test system: OVCAR-4 ovarian
HCT-116 colon = test system: HCT-116 colon
RPMI-8226 leukemia = test system: RPMI-8226 leukemia
HOP-62 NSCLC = test system: HOP-62 NSCLC
SR leukemia = test system: SR leukemia

## Fc1ccc(-c2sc(-c3cccs3)cc2Cc2cccs2)cc1
CAKI-1 renal
  TGI: > 100 µM
MDA-MB-435
  TGI: > 100 µM
HCC-2998 colon
  TGI: > 100 µM
SF-539 CNS
  TGI: > 100 µM
A549 NSCLC
  TGI: > 100 µM
HS 578T breast
  TGI: > 100 µM
SK-MEL-5 melanoma
  TGI: > 100 µM
SF-295 CNS
  TGI: > 100 µM
SK-MEL-28 melanoma
  TGI: > 100 µM
MALME-3M melanoma
  TGI: > 100 µM
EKVX NSCLC
  TGI: > 100 µM
786-0 renal
  TGI: > 100 µM
HT29 colon
  TGI: > 100 µM
NCI-H460 lung
  TGI: > 100 µM
CCRF-CEM leukemia
  TGI: > 100 µM
SW-620 colon
  TGI: > 100 µM
MCF7 breast
  TGI: > 100 µM
DU-145 prostate
  TGI: > 100 µM
UO-31 renal
  TGI: > 100 µM
NCI/ADR-RES ovarian
  TGI: > 100 µM
K-562 leukemia
  TGI: > 100 µM
OVCAR-3 ovarian
  TGI: > 100 µM
HCT-15 colon
  TGI: > 100 µM
UACC-62 melanoma
  TGI: > 100 µM
TK-10 renal
  TGI: > 100 µM
MDA-MB-231 breast
  TGI: > 100 µM
A498 renal
  TGI: > 100 µM
HL-60(TB) leukemia
  TGI: > 100 µM
U251 CNS
  TGI: > 100 µM
SNB-19 CNS
  TGI: > 100 µM
RXF 393 renal
  TGI: > 100 µM
LOX IMVI melanoma
  TGI: > 100 µM
SNB-75 CNS
  TGI: > 100 µM
M14 melanoma
  TGI: > 100 µM
SN12C renal
  TGI: > 100 µM
SF-268 CNS
  TGI: > 100 µM
SK-OV-3 ovarian
  TGI: > 100 µM
KM12 colon
  TGI: > 100 µM
IGROV1 ovarian
  TGI: > 100 µM
NCI-H522 lung
  TGI: > 100 µM
MOLT-4 leukemia
  TGI: > 100 µM
COLO 205 colon
  TGI: > 100 µM
T-47D breast
  TGI: > 100 µM
OVCAR-5 ovarian
  TGI: > 100 µM
NCI-H226 lung
  TGI: > 100 µM
HOP-92 NSCLC
  TGI: > 100 µM
SK-MEL-2 melanoma
  TGI: > 100 µM
OVCAR-8 ovarian
  TGI: > 100 µM
ACHN renal
  TGI: > 100 µM
UACC-257 melanoma
  TGI: > 100 µM
NCI-H23 lung
  TGI: > 100 µM
BT-549 breast
  TGI: > 100 µM
OVCAR-4 ovarian
  TGI: > 100 µM
HCT-116 colon
  TGI: > 100 µM

## Clc1ccc(-c2cc(-c3ccccc3)nc(NCCNc3ccnc4cc(Cl)ccc34)n2)cc1
CAKI-1 renal
  GI50: 1.47 µM
  TGI: 2.93 µM
MDA-MB-435
  GI50: 1.77 µM
  TGI: 3.27 µM
HCC-2998 colon
  GI50: 1.85 µM
  TGI: 3.56 µM
SF-539 CNS
  GI50: 1.72 µM
  TGI: 3.34 µM
RPMI-8226 leukemia
  GI50: 2.03 µM
  TGI: 4.54 µM
A549 NSCLC
  GI50: 1.71 µM
  TGI: 3.45 µM
HS 578T breast
  GI50: 1.88 µM
  TGI: 4.19 µM
SK-MEL-5 melanoma
  GI50: 1.74 µM
  TGI: 3.2 µM
SF-295 CNS
  GI50: 1.8 µM
  TGI: 3.52 µM
SK-MEL-28 melanoma
  GI50: 1.7 µM
  TGI: 3.19 µM
MALME-3M melanoma
  GI50: 1.71 µM
  TGI: 3.3 µM
EKVX NSCLC
  GI50: 1.6 µM
  TGI: 3.34 µM
786-0 renal
  GI50: 1.67 µM
  TGI: 3.41 µM
HT29 colon
  GI50: 1.67 µM
  TGI: 3.26 µM
HOP-62 NSCLC
  GI50: 1.68 µM
  TGI: 3.48 µM
NCI-H460 lung
  GI50: 1.95 µM
  TGI: 3.85 µM
CCRF-CEM leukemia
  GI50: 2.14 µM
  TGI: 5.56 µM
SW-620 colon
  GI50: 1.7 µM
  TGI: 3.48 µM
MCF7 breast
  GI50: 1.72 µM
  TGI: 3.73 µM
DU-145 prostate
  GI50: 1.82 µM
  TGI: 3.31 µM
UO-31 renal
  GI50: 1.38 µM
  TGI: 2.86 µM
NCI/ADR-RES ovarian
  GI50: 1.66 µM
  TGI: 3.4 µM
K-562 leukemia
  GI50: 1.62 µM
  TGI: 3.53 µM
OVCAR-3 ovarian
  GI50: 1.77 µM
  TGI: 3.36 µM
HCT-15 colon
  GI50: 1.63 µM
  TGI: 3.25 µM
UACC-62 melanoma
  GI50: 1.84 µM
  TGI: 3.37 µM
TK-10 renal
  GI50: 1.8 µM
  TGI: 3.42 µM
MDA-MB-231 breast
  GI50: 1.88 µM
  TGI: 3.57 µM
A498 renal
  GI50: 1.64 µM
  TGI: 3.31 µM
HL-60(TB) leukemia
  GI50: 1.85 µM
  TGI: 3.76 µM
U251 CNS
  GI50: 1.72 µM
  TGI: 3.37 µM
SR leukemia
  GI50: 1.59 µM
  TGI: 4.56 µM
SNB-19 CNS
  GI50: 1.72 µM
  TGI: 3.59 µM
RXF 393 renal
  GI50: 1.19 µM
  TGI: 2.8 µM
LOX IMVI melanoma
  GI50: 1.89 µM
  TGI: 3.7 µM
SNB-75 CNS
  GI50: 1.58 µM
  TGI: 3.08 µM
SN12C renal
  GI50: 1.74 µM
  TGI: 3.28 µM
SF-268 CNS
  GI50: 1.81 µM
  TGI: 3.8 µM
SK-OV-3 ovarian
  GI50: 1.71 µM
  TGI: 3.29 µM
KM12 colon
  GI50: 1.81 µM
  TGI: 3.46 µM
IGROV1 ovarian
  GI50: 1.6 µM
  TGI: 3.27 µM
NCI-H522 lung
  GI50: 1.81 µM
  TGI: 3.78 µM
MOLT-4 leukemia
  GI50: 1.89 µM
  TGI: 4.19 µM
COLO 205 colon
  GI50: 1.68 µM
  TGI: 3.66 µM
T-47D breast
  GI50: 1.54 µM
  TGI: 3.45 µM
OVCAR-5 ovarian
  GI50: 1.67 µM
  TGI: 3.06 µM
NCI-H226 lung
  GI50: 1.57 µM
  TGI: 3.68 µM
HOP-92 NSCLC
  GI50: 1.32 µM
  TGI: 2.8 µM
SK-MEL-2 melanoma
  GI50: 1.73 µM
  TGI: 3.23 µM
OVCAR-8 ovarian
  GI50: 1.91 µM
  TGI: 4.1 µM
ACHN renal
  GI50: 1.72 µM
  TGI: 3.24 µM
UACC-257 melanoma
  GI50: 2 µM
  TGI: 4.09 µM
NCI-H23 lung
  GI50: 1.76 µM
  TGI: 3.6 µM
BT-549 breast
  GI50: 1.68 µM
  TGI: 3.25 µM
OVCAR-4 ovarian
  GI50: 1.79 µM
  TGI: 3.83 µM
HCT-116 colon
  GI50: 1.65 µM
  TGI: 3.41 µM
